Strand notation (5' to 3'): a small letter for the sugar, then the base; units joined by * are phosphorothioate-linked, units joined directly phosphodiester-linked; [ ] holds rarer units or linkages, { } end groups; capitals alone tell only the bases. l = locked nucleic acid (LNA); [5mC] = 5-methylcytosine; d = 2'-deoxy (DNA)
Tested on: SNORA23
Assay: knock-down of target RNA after transdermal or subcutaneous administration to tumor-bearing mice (RT-PCR)
Format: in vivo
Settings: for expression level of the target RNA (SNORA23): 250 μg ASO in 50 μL, two days after, skin, subcutaneous tumor, liver, FIG. 34
Description: A formulation targeting SNORA23 was prepared. To mice, 3×10^6 ES2 ovarian carcinoma cells were subcutaneously transplanted, and the formation of subcutaneous tumor was checked 1 week after that. To the top (1 cm×1 cm) of a tumor or into the periphery of a tumor, 50 μL of hybrid particles containing 250 μg of ASO targeting SNORA23 was applied or subcutaneously injected. For the transdermal administration group, protective tape was wound once around the trunk including the administration site.
Two days after the administration, the skin, subcutaneous tumor, and liver were isolated, and total RNA was extracted. The level of targeted RNA (SNORA23) was quantified, and the presence or absence of reduction in the expression level was examined by an RT-PCR method.

5′-GAAacctatgmCAmCa-3′ (lG*lA*lA*dA*dC*dC*dT*dA*dT*dG*l[5mC]*lA*l[5mC]*dA) [ASO]
knock-down of target RNA in the liver (irrespective of the route of administration, suggests migration of ASO into blood): knock-down effect
expression level of the target RNA (SNORA23) (subcutaneous administration): Reduction of the expression level of the target RNA was induced
expression level of the target RNA (SNORA23) (transdermal administration): Reduction of the expression level of the target RNA was induced

Reference: patent publication US20260191969A1, “COMPOSITION CONTAINING ANIONIC LONG-CHAIN LIPID TO BE USED FOR ATTENUATING SKIN BARRIER FUNCTION, AND DISPERSION CONTAINING COMPLEX COMPRISING CATIONIC LONG-CHAIN LIPID, ANIONIC LONG-CHAIN LIPID AND DRUG DISPERSED THEREIN” (KYUSHU UNIVERSITY, NATIONAL UNIVERSITY CORPORATION, priority 2022, published 2026)
